Measurements taken from patent US20230416262A1, “TRPML MODULATORS” (Casma Therapeutics, Inc., priority 2020, published 2023).

How the values were obtained:
[1] = test system: THP-1 cells; assay: Lamp1 lysosomal exocytosis assay; assay type: cell-based; conditions: Homo sapiens, 55 min, 55 min incubation, top dose 20 μM
Procedure, shortened: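 THP-1 cells (1e5/well) exposed to a 7-point 3-fold compound series, top final 20 μM, for 55 min at 37°C. Surface Lamp1 then stained with Lamp1-PE on ice in buffer containing 80 μM Dynasore, and read by flow cytometry as PE geometric mean on live, sytox-negative singlets.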

[2] = test system: TFEB; assay: TFEB nuclear translocation assay; assay type: cell-based; conditions: Homo sapiens; HeLa wt or HeLa TRPML1 KO cells, treated for 2 hrs; ratio of nuclear to ring-region TFEB intensity
Procedure, shortened: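 HeLa wild-type or TRPML1 KO cells treated 2 h with compound at 37 °C, PFA-fixed, immunostained for TFEB (Alexa 488) with Hoechst nuclei. Imaged at ×20, four fields/well. Value is ratio of nuclear to perinuclear-ring TFEB intensity, with nuclei counts.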

Row | Compound | EC50 [1] [nM] | EC50 [2] [nM]
1 | O=S(=O)(c1ccc(C(F)F)cc1)N1CC2(CCN(CC(F)(F)F)CC2)c2ccccc21 [Compound I-86, 1-[4-(difluoromethyl)benzenesulfonyl]-1′-(2,2,2-trifluoroethyl)-1,2-dihydrospiro[indole-3,4′-piperidine]] | ≥ 5010 | ≤ 2000
2 | CN(C)S(=O)(=O)c1ccc(S(=O)(=O)N2CC3(CCN(CC(F)(F)F)CC3)c3ccccc32)cc1 [Compound I-87, N,N-dimethyl-4-{[1′-(2,2,2-trifluoroethyl)-1,2-dihydrospiro[indole-3,4′-piperidin]-1-yl]sulfonyl}benzene-1-sulfonamide] | 510 to 1000 | ≤ 2000
3 | O=C(OCc1ccccc1)N1CCC2(C1)CN(S(=O)(=O)c1ccc(C(F)F)cc1)c1ccccc12 (stereo not drawn) [Compound I-91, benzyl 1-[4-(difluoromethyl)benzenesulfonyl]-1,2-dihydrospiro[indole-3,3′-pyrrolidine]-1′-carboxylate] | ≥ 5010 | 2010 to 8000
4 | O=S(=O)(c1ccc(C(F)F)cc1)N1CC2(CCN(CC(F)(F)F)C2)c2ccccc21 (stereo not drawn) [Compound I-92, 1-[4-(difluoromethyl)benzenesulfonyl]-1′-(2,2,2-trifluoroethyl)-1,2-dihydrospiro[indole-3,3′-pyrrolidine]] | ≥ 5010 | 2010 to 8000
5 | CC1(C)COc2ccc(S(=O)(=O)N3CC4(CCCCC4)c4ccccc43)cc21 [Compound I-94, 1′-[(3,3-dimethyl-2,3-dihydro-1-benzofuran-5-yl)sulfonyl]-1′,2′-dihydrospiro[cyclohexane-1,3′-indole]] | ≥ 5010 | ≤ 2000
6 | CN(C)S(=O)(=O)c1ccc(S(=O)(=O)N2CC3(CCCC3)c3c(F)cccc32)cc1 [Compound I-95, 4-({4′-fluoro-1′,2′-dihydrospiro[cyclopentane-1,3′-indol]-1′-yl}sulfonyl)-N,N-dimethylbenzene-1-sulfonamide] | ≤ 500 | ≤ 2000
7 | CN(C)S(=O)(=O)c1ccc(S(=O)(=O)N2CC3(CCN(CC(C)(F)F)CC3)c3ccccc32)cc1 [Compound I-97, 4-{[1′-(2,2-difluoropropyl)-1,2-dihydrospiro[indole-3,4′-piperidin]-1-yl]sulfonyl}-N,N-dimethylbenzene-1-sulfonamide] | 510 to 1000 | ≤ 2000
8 | CN(C)S(=O)(=O)c1ccc(S(=O)(=O)N2CC3(CCN(CC4CCOCC4)CC3)c3ccccc32)cc1 [Compound I-98, N,N-dimethyl-4-({1′-[(oxan-4-yl)methyl]-1,2-dihydrospiro[indole-3,4′-piperidin]-1-yl}sulfonyl)benzene-1-sulfonamide] | 1010 to 5000 | ≤ 2000
9 | CN(C)S(=O)(=O)c1ccc(S(=O)(=O)N2CC3(CCCCC3)c3ccccc32)cc1 [Compound I-99, 4-({1′,2′-dihydrospiro[cyclohexane-1,3′-indol]-1′-yl}sulfonyl)-N,N-dimethylbenzene-1-sulfonamide] | ≤ 500 | ≤ 2000
10 | CC1(C)COc2ccc(S(=O)(=O)N3CC4(CCCC4)c4c(F)cccc43)cc21 [Compound I-100, 1′-[(3,3-dimethyl-2,3-dihydro-1-benzofuran-5-yl)sulfonyl]-4′-fluoro-1′,2′-dihydrospiro[cyclopentane-1,3′-indole]] | ≥ 5010 | ≤ 2000
11 | CN(C)S(=O)(=O)c1ccc(S(=O)(=O)N2CC3(CN(CC4CCOCC4)C3)c3ccccc32)cc1 [Compound I-101, N,N-dimethyl-4-({1-[(oxan-4-yl)methyl]-1′,2′-dihydrospiro[azetidine-3,3′-indol]-1′-yl}sulfonyl)benzene-1-sulfonamide] | ≥ 5010 | 2010 to 8000
12 | CN(C)S(=O)(=O)c1ccc(S(=O)(=O)N2CC3(CCN(C4CCOC4)CC3)c3ccccc32)cc1 (stereo not drawn) [Compound I-103, N,N-dimethyl-4-{[1′-(oxolan-3-yl)-1,2-dihydrospiro[indole-3,4′-piperidin]-1-yl]sulfonyl}benzene-1-sulfonamide] | ≥ 5010 | 2010 to 8000
